Measured values: article PMC10537403 (Viruses, 2023)
No end group written: not given here.

What was measured:
Assay type in all cases: cell-based
[1] = test system: VERO/hSLAM, BHK-21, and MDBK cell lines; experiment: Cytotoxicity, MTT assay; details: 2 and 24 h, peptides […] to 100 μM
[2] = test system: canine distemper virus (CDV, strain Onderstepoort); experiment: Antiviral activity against CDV, plaque assay, time of addition assays; details: VERO/hSLAM cells, co-treatment, virus pre-treatment, cell pre-treatment, post-treatment
[3] = test system: Schmallenberg virus (SBV); details: BHK-21 cells, SBV 200 TCID50 incubated with peptide 1 h, CPE at 72 h, MTT staining
[4] = test system: caprine herpesvirus type 1 (CpHV-1, reference Swiss strain E/CH); experiment: Antiviral activity against CpHV-1, plaque assay, time of addition assays; details: MDBK cells
[5] = test system: bovine herpesvirus type 1 (BoHV-1, Cooper strain); experiment: Antiviral activity against BoHV-1, plaque assay, time of addition assays; details: MDBK cells

Substance: H-GLADFLNKAVGKVVDFVKS-NH2 [Deserticolin-1, amphibian peptide secreted by Crinia deserticola]
- Cytotoxicity (in words) [1]: not cytotoxic even at higher concentrations tested
- Inhibitory effect against CDV in all the time-addition assays (in words) [2]: did not show an inhibitory effect
- Activity against SBV infection (in words) [3]: any activity
- Antiviral action against CpHV-1 (in words) [4]: no antiviral action
- Antiviral action against BoHV-1 (in words) [5]: no antiviral action

Substance: RIGVLLARLPKLFSLFKLMGKKV-NH2 [RV-23]
- Activity against SBV infection (in words) [3]: able to reduce SBV infection with a higher efficacy

Substance: H-GILDAIKAIAKAAG-OH [Hylaseptin-P1, amphibian peptide derived from Leptopelis aubryi]
- Cytotoxicity (in words) [1]: not cytotoxic even at higher concentrations tested
- Inhibitory effect against CDV in all the time-addition assays (in words) [2]: did not show an inhibitory effect
- Activity against SBV infection (in words) [3]: any activity
- Antiviral action against CpHV-1 (in words) [4]: no antiviral action
- Antiviral action against BoHV-1 (in words) [5]: no antiviral action
